In patent publication EP0147980A2, “A 5-nitro-2-furanyl derivative and its use as an anti-parasitic agent” (Rossignol, Jean François, priority 1983, dated 1985):
Several values for one entry are separate records, joined by “and”; a condition that tells them apart may be missing. Identical values can stand only once.

How the values were obtained:
Assay type in all cases: in vivo
[1] = tested on: Schistosoma mansoni; experiment: Primary prophylactic test (mortality test) against Schistosoma mansoni in mice
Procedure: The primary screening method used to evaluate prophylactic activity against Schistosoma mansoni is a mortality test. Mice are exposed to a massive number of cercariae by tail immersion. In untreated control mice this exposure produces a reproducible mortality pattern with 99+% of the mice dying between 20 and 30 days (mean survival time 24 days). The test compound is administered in a single dose two days after cercarial exposure. A compound is considered active if mice survive to 49 days, at which time they are sacrificed and examined for worms.
The test is of the "prophylactic"-type in the sense that the drug action is on the immature migrating schistosomes and prevents the development of adult worms in the portal circulation.
Mice weighing 18 to 23 grams were exposed to 3500-4500 infective S. mansoni cercariae by tail immersion for 30 minutes, and subsequently housed in groups of five per cage (5 test mice and 5 control mice). Two days after infection, the test compound of the formula (I) was administered subcutaneously as a single 1,280 mg/kg dose suspended in peanut oil to one group of five mice.
Mouse mortality was recorded daily for 49 days after infection. On the 49th day, survivors were sacrificed and the total worm burden was determined by perfusion of the liver and portal circulation (perf-o-suction technique).
Control mice exposed to at least 3500 cercariae and not treated with the test compound (I) experience 99+% mortality, with nearly all deaths occurring between about day 20 and day 30. In treated mice, deaths occurring within one week after drug administration are assumed to be induced by the toxic action of the drug itself, since, control mice rarely die during this period. The survival of drug treated mice to 49 days is interpreted as evidence of drug action which kills or otherwise prevents the development of the migrating immature schistosomes. The- survival of only one mouse has, in our experience, been difficult to reproduce, and, in general, a compound is not considered active unless two or more mice survive to 49 days.

[2] = tested on: Schistosoma mansoni; experiment: Primary curative test against Schistosoma mansoni in hamster
Procedure: The primary curative test evaluates the therapeutic activity of the drug against S. mansoni in hamster. Interpretation of the test is based upon observation of a shift of worms from the portal and mesenteric veins to the liver under the influence of the test drug. Hamsters weighing 150 to 250 grams were exposed to 150-250 S. mansoni cercariae by the ring method. 30 to 35 days after infection, the test drug (compound (I)) was administered as a 200 mg/kg daily dose for four consecutive days. The drug was administered by oral gavage suspended in gum syrup. Hamsters were sacrificed three days after the last drug treatment. The liver was removed, squashed between two slides, and the number of live and dead worms in the liver were recorded. From experience, the total worm burden in the portal circulation of S. mansoni infected hamsters ranges from 20 to 50 worms, i.e., […] of the total number of cercariae injected. Over 80% of these worms reside in the extra-hepatic portal and mesenteric veins. Thus, when the liver is removed in control animals about 10 worms could be counted in the liver.

[3] = tested on: S. japonicum; experiment: Primary curative test against S. japonicum in hamsters; details: 1 g/kg single oral gavage
Source text: The primary curative test evaluates the therapeutic activity of the drug against S. japonicum in hamsters. Interpretation of the test is based upon observation of a shift of worms from the portal and mesenteric veins to the liver under the influence of the test drug. In addition the mortality of the worms found in the liver, portal and mesenteric veins is also an important criteria of effectiveness in establishing the schistosomicidal effectiveness of the drug. Hamsters weighing 150 to 250 grams were exposed to 100 S. japonicum cercariae by the ring method. 35 to 45 days after infection, the test compound (I) was administered as a single […] by oral gavage, the product being suspended in gum syrup. Out of 10 infected animals, 5 were so treated, with 5 being used as control animals. Hamsters were sacrificed three days after treatment; the liver was removed as well as the portal and mesenteric veins, squashed between two slides and the number of live or dead worms in the liver, the portal and mesenteric veins was recorded.

[4] = Acute oral toxicity study in mice
Procedure: The test chemical was administered as a single 4,000 mg/kg oral dose to five male and five female Swiss mice.

[5] = individual surviving mice (Mouse 1-3) sacrificed day 49, 1,280 mg/kg s.c.
[6] = mean of three surviving mice, day 49, 1,280 mg/kg s.c.
[7] = individual hamsters 1-5, 200 mg/kg daily for four consecutive days, oral gavage, sacrificed three days after last treatment, 200 mg/kg
[8] = individual treated hamsters 1-5

Structure (SMILES): COc1ccc(NC(=O)C=Cc2ccc([N+](=O)[O-])o2)c(C)c1 [compound (I), N-(4-methoxy-2-methylphenyl)-3-(5-nitro-2-furanyl) propenamide]
- mice survived until day 49 ([1]; group of five mice, single 1,280 mg/kg subcutaneous dose in peanut oil two days after infection): Three
- day of death of the two test mice that died ([1]; group of five mice, single 1,280 mg/kg subcutaneous dose, control mice died at days 19, 22, 25, 28 and 32): 41 days
- worm burden, Female [1, 5]: 5 and 7 and 6
- worm burden, Total [1, 5]: 15 and 19 and 16
- worm burden, Male ([1]; individual surviving mice (Mouse 1-3) sacrificed day 49, 1,280 mg/kg s.c., perfusion of liver and portal circulation): 10 (2×) and 12
- worm burden, Female, mean [1, 6]: 6.0
- worm burden, Male, mean [1, 6]: 10.6
- worm burden, Total, mean [1, 6]: 16.6
- activity against the migrating stage of Schistosoma mansoni in mice ([1]; single subcutaneous administration of 1,280 mg/kg, active = two or more mice survive to 49 days): active
- shift of worms from the portal and mesenteric veins to the liver ([2]; 200 mg/kg daily x 4 days oral, parasites in the liver were dead): marked shift of the worms from the portal and mesenteric veins to the liver
- effective dose ([2]; for four consecutive days, oral gavage, hamster): 200 mg/kg per day
- No. of worms found in the liver, Treated Animals, F [2, 7]: 17 and 6 and 18 and 60 and 54
- No. of worms found in the liver, Treated Animals, M [2, 7]: 17 and 10 (2×) and 50 and 46
- Mean No. of worms found in the liver, Treated Animals, F ([2]; mean of five treated hamsters, 200 mg/kg daily x 4 days oral, controls 12.0): 31.0
- Mean No. of worms found in the liver, Treated Animals, M ([2]; mean of five treated hamsters, 200 mg/kg daily x 4 days oral, controls 15.3): 26.6
- shift of worms from the portal and mesenteric veins to the liver [3]: marked shift of the worms from the portal and mesenteric veins to the liver
- worms killed on the average in the liver, the portal and mesenteric veins ([3]; average of five treated hamsters): about 86%
- No. of worms found, Liver, Female [3, 8]: 7 and 6 (3×) and 4
- No. of worms found, Mesenteric, Female [3, 8]: 5 and 4 (3×) and 2
- No. of worms found, Mesenteric, Male [3, 8]: 7 (2×) and 6 and 4 and 8
- No. of worms found, Portal, Female [3, 8]: 0
- No. of worms found, Portal, Male [3, 8]: 0
- No. of worms found, Liver, Male ([3]; individual treated hamsters 1-5, sacrificed three days after treatment): 8 (2×) and 14 (2×) and 9
- % dead ([3]; worms, individual treated hamsters 1-5, controls 0): 100% (3×) and 70% and 60%
- LD50 at 336 h ([4]; mouse, in vivo, po, administered orally in mice): > 4000 mg/kg
- clinical observation, weights and macroscopic examination of organs ([4]; single 4,000 mg/kg oral dose, five male and five female Swiss mice, 14 days): no adverse pattern
